Results reported in patent USRE39050E1, “Methods of use for inhibiting bone loss and lowering serum cholesterol” (Eli Lilly and Company, priority 1994, dated 2006).
Counter-ions that a name gives are not always drawn. Marks after values point to notes of the source that are not given here.

What was measured:
[1] = system: healthy post-menopausal women; experiment: 8-week parallel, double-blind, placebo study: markers of bone metabolism (GGGC); type: in vivo, human; settings: 8 weeks
Description: (§1) An 8-week parallel, double-blind, placebo study in approximately 160 healthy post-menopausal women was completed. The doses of raloxifene used in this study were 10, 50, and 200 mg. […] (See Table I) Because of development over time seen with many bone markers, a raloxifene dose of 50 mg/day will likely be fully active when evaluated during a study of longer duration.

[2] = system: healthy post-menopausal women; experiment: 8-week parallel, double-blind, placebo study: serum lipids (GGGC); type: in vivo, human; settings: 8 weeks
Description: as §1
Serum lipid levels were affected by raloxifene doses of 50 and 200 mg (Table II).

With O=C(c1ccc(OCCN2CCCCC2)cc1)c1c(-c2ccc(O)cc2)sc2cc(O)ccc12 [Raloxifene, 6-hydroxy-2-(4-hydroxyphenyl)-3[4-(2-piperidinoethoxy)benzoyl]benzo[b]thiophene, hydrochloride] the “activity with either bone marker (in words)” value ([1]; 10 mg dose) was “no significant activity”, the “Serum alkaline phosphatase, mean group change from baseline to endpoint” value ([1]; raloxifene 10 mg, n = 42) was 0.21 U/L and the “Serum osteocalcin, mean group change from baseline to endpoint” value (“Serum osteocalcin, mean group change” for short) ([1]; raloxifene 10 mg, n = 42) was -0.27 ng/mL. For the same molecule, the “Serum alkaline phosphatase, mean group change from baseline to endpoint” value ([1]; raloxifene 50 mg, n = 42) was −4.78 U/L, the “Serum osteocalcin, mean group change” value ([1]; raloxifene 50 mg, n = 42) was -0.81 ng/mL and the “Serum alkaline phosphatase, mean group change from baseline to endpoint” value ([1]; raloxifene 200 mg, n = 41) was −5.93* U/L. The “Serum osteocalcin, mean group change” value ([1]; raloxifene 200 mg, n = 41) was −1.21* ng/mL, the “LDL cholesterol (in words)” value ([2]; 50 mg) was “Decreases” and the “LDL cholesterol (in words)” value ([2]; 200 mg) was “comparable decrease”. For the same molecule, the “HDL:LDL ratios (in words)” value ([2]; both the 50 and 200 mg doses) was “Statistically significant decreases”, the “total serum cholesterol levels (in words)” value ([2]; both the 50 and 200 mg doses) was “Statistically significant decreases” and the “HDL-C, mean group change from baseline to endpoint” value (“HDL-C, mean group change” for short) ([2]; raloxifene 10 mg, n = 42) was 0.01 mmol/L. For the same molecule, the “HDL-C:LDL-C ratio, mean group change from baseline to endpoint” value (“HDL-C:LDL-C ratio, mean group change” for short) ([2]; raloxifene 10 mg, n = 42) was 0.00, the “LDL-C, mean group change from baseline to endpoint” value (“LDL-C, mean group change” for short) ([2]; raloxifene 10 mg, n = 42) was 0.05 mmol/L and the “Toal cholesterol, mean group change from baseline to endpoint” value (“Toal cholesterol, mean group change” for short) ([2]; raloxifene 10 mg, n = 42) was 0.01 mmol/L. For the same molecule, the “HDL-C, mean group change” value ([2]; raloxifene 50 mg, n = 42) was 0.04 mmol/L, the “HDL-C:LDL-C ratio, mean group change” value ([2]; raloxifene 50 mg, n = 42) was 0.03* and the “LDL-C, mean group change” value ([2]; raloxifene 50 mg, n = 42) was −0.23* mmol/L. The “Toal cholesterol, mean group change” value ([2]; raloxifene 50 mg, n = 42) was −0.23* mmol/L, the “HDL-C, mean group change” value ([2]; raloxifene 200 mg, n = 41) was 0.02 mmol/L and the “HDL-C:LDL-C ratio, mean group change” value ([2]; raloxifene 200 mg, n = 41) was 0.03*. The “LDL-C, mean group change” value ([2]; raloxifene 200 mg, n = 41) was -0.17 mmol/L, the “Toal cholesterol, mean group change” value ([2]; raloxifene 200 mg, n = 41) was -0.15 mmol/L and the “HDL levels (in words)” value ([2]; raloxifene-treated subjects) was “no changes”.
